According to PMC7516806, “Hybrid Antimicrobial Peptide Targeting Staphylococcus aureus and Displaying Anti-infective Activity in a Murine Model” (Frontiers in Microbiology, 2020):
No end group written: not given here.

How the values were obtained:
L. rhamnosus 1.0936 = assay: MIC, modified microtiter dilution; format: cell-based, Lactobacillus rhamnosus; conditions: 2–7 × 10^5 CFU/ml, 37°C, 24 h, no turbidity, at least three independent repeats
Source text: (§1) The experiment was repeated at least three times independently.

L. rhamnosus 1.0385 = assay: MIC, modified microtiter dilution; format: cell-based, Lactobacillus rhamnosus; conditions: 2–7 × 10^5 CFU/ml, 37°C, 24 h, no turbidity, at least three independent repeats
Source text: as §1

L. rhamnosus 1.0911 = assay: MIC, modified microtiter dilution; format: cell-based, Lactobacillus rhamnosus; conditions: 2–7 × 10^5 CFU/ml, 37°C, 24 h, no turbidity, at least three independent repeats
Source text: as §1

L. rhamnosus 7469 = assay: MIC, modified microtiter dilution; format: cell-based, Lactobacillus rhamnosus; conditions: 2–7 × 10^5 CFU/ml, 37°C, 24 h, no turbidity, at least three independent repeats
Source text: as §1

MRSA 43300 = format: cell-based, Staphylococcus aureus; conditions: MHB, 2–7 × 10^5 CFU/ml, 37°C, 24 h, no turbidity, at least three independent repeats
Source text: as §1

S. aureus 29213 [1] = assay: MIC in the presence of physiological salts; format: cell-based, Staphylococcus aureus; conditions: three independent repeats, unit not given in Table 4
Method: as §1
The MIC of peptides was determined in the presence of salts at physiological concentrations (150 mM NaCl, 4.5 mM KCl, 6 μM NH4Cl, 8 μM ZnCl2, 1 mM MgCl2, 2 mM CaCl2, and 4 μM FeCl3) as described previously ([Dong et al., 2014]). All experiments were performed three times independently.

E. coli 25922 = assay: MIC, modified microtiter dilution; format: cell-based, Escherichia coli; conditions: MHB, 2–7 × 10^5 CFU/ml, 37°C, 24 h, lowest concentration with no turbidity, at least three independent repeats
Source text: as §1

E. coli UB1005 = assay: MIC, modified microtiter dilution; format: cell-based, Escherichia coli; conditions: MHB, 2–7 × 10^5 CFU/ml, 37°C, 24 h, no turbidity, at least three independent repeats
Source text: as §1

L. plantarum 8014 = assay: MIC, modified microtiter dilution; format: cell-based, Lactobacillus plantarum; conditions: 2–7 × 10^5 CFU/ml, 37°C, 24 h, no turbidity, at least three independent repeats
Source text: as §1

P. aeruginosa 27853 = assay: MIC, modified microtiter dilution; format: cell-based, Pseudomonas aeruginosa; conditions: MHB, 2–7 × 10^5 CFU/ml, 37°C, 24 h, no turbidity, at least three independent repeats
Source text: as §1

E. coli K99 = conditions: MHB, 2–7 × 10^5 CFU/ml, 37°C, 24 h, no turbidity, at least three independent repeats
Source text: (§2) The bacterial strains Escherichia coli (E. coli) ATCC 25922, E. coli K88, E. coli K99, Pseudomonas aeruginosa (P. aeruginosa) ATCC 27853, Escherichia coli (E. coli) UB1005, Salmonella typhimurium 14028, Salmonella pullorum (S. pullorum) C7913, S. typhimurium C7731, S. aureus ATCC 29213, MRSA ATCC 43300, and S. aureus ATCC 25923 were obtained from the College of Veterinary Medicine, Northeast Agricultural University, China. Lactobacillus plantarum (L. plantarum) 8014, Lactobacillus rhamnosus (L. rhamnosus) 7469, L. rhamnosus 1.0911, L. rhamnosus 1.0936, and L. rhamnosus 1.0385 were obtained from the Key Laboratory of Food College, Northeast Agricultural University, China.
(§3) As in a previous study, the antimicrobial activities of the AMPs were investigated using a modified standard microtiter dilution method ([Dong et al., 2014]). The peptides were serially diluted with a solution containing 0.01% acetic acid and 0.2% bovine serum albumin (BSA, Sigma) in 96-well plates. The bacteria grew to the mid-log phase and then were dissolved in MHB at concentration of 2–7 × 10^5 CFU/ml. The peptides and bacterial solution were mixed in equal volume in a 37°C incubator for 24 h. […] Mueller-Hinton broth with microorganisms was used as the positive control, and the pure broth was used as the negative control. The experiment was repeated at least three times independently.

E. coli K88 = conditions: MHB, 2–7 × 10^5 CFU/ml, 37°C, 24 h, no turbidity, at least three independent repeats
Source text: as §2, §3

S. aureus 29213 [2] = assay: MIC, modified microtiter dilution; format: cell-based, Staphylococcus aureus; conditions: MHB, 2–7 × 10^5 CFU/ml, 37°C, 24 h, no turbidity, at least three independent repeats
Source text: as §1

S. aureus 25923 = assay: MIC, modified microtiter dilution; format: cell-based, Staphylococcus aureus; conditions: MHB, 2–7 × 10^5 CFU/ml, 37°C, 24 h, no turbidity, at least three independent repeats
Source text: as §1

[3] = tested on: human red blood cells (hRBCs); assay: Hemolysis assay; format: cell-based; conditions: 1.5 h, 37°C, absorbance 570 nm; 0.1% Triton X-100 positive control
Method: The cytotoxicity of peptides was determined by healthy human erythrocytes and the murine macrophage cell line RAW 264.7 via a hemolysis assay and MTT dye reduction assay, respectively ([Wang et al., 2018]). In the hemolysis assay, fresh hRBCs from healthy people were centrifuged for 5 min at 1,000 × g and then washed three times with PBS (pH = 7.2). The 100 μL erythrocyte suspension and peptides were incubated for 1.5 h in an incubator at 37°C. The 96-well plates were centrifuged at 1,000 × g for 5 min, and the supernatants were carefully aspirated. The absorbance at 570 nm indicated the leakage of hemoglobin. The hRBCs in the PBS sample was used as the negative control, and 0.1% Triton X-100 addition served as the positive control. In the MTT dye reduction assay, 1.0–2.0 × 10^5 cells were plated in 96-well plates and then treated with various concentrations of peptides for 4 h at 37°C in a 5% CO2 incubator. Subsequently, 50 μL of MTT was added to the plated cells at a final concentration of 0.5 mg/mL and incubated for 4 h. Then, the cells were centrifuged at 1000 × g for 5 min, and the supernatants were discarded. Formazan crystals were dissolved in 150 μL of DMSO, and the OD570 nm was measured using a microplate reader (TECAN GENios F129004; TECAN, Austria). The experiment was repeated three times independently.

S. typhimurium 14028 = assay: MIC, modified microtiter dilution; format: cell-based, Salmonella typhimurium; conditions: MHB, 2–7 × 10^5 CFU/ml, 37°C, 24 h, no turbidity, at least three independent repeats
Source text: as §1

S. typhimurium 7731 = assay: MIC, modified microtiter dilution; format: cell-based, Salmonella typhimurium; conditions: MHB, 2–7 × 10^5 CFU/ml, 37°C, 24 h, no turbidity, at least three independent repeats
Source text: as §1

S. pullorum 7913 = assay: MIC, modified microtiter dilution; format: cell-based, Salmonella pullorum; conditions: MHB, 2–7 × 10^5 CFU/ml, 37°C, 24 h, no turbidity, at least three independent repeats
Source text: as §1

RWWWLL-NH2 [Peptide S7]
MIC L. rhamnosus 1.0936 (L. rhamnosus 1.0936): >64 µM | MIC L. rhamnosus 1.0385 (L. rhamnosus 1.0385): >64 µM | MIC L. rhamnosus 1.0911 (L. rhamnosus 1.0911): >64 µM | MIC L. rhamnosus 7469 (L. rhamnosus 7469): >64 µM | MIC MRSA 43300 (MRSA 43300): 8 µM | MIC against S. aureus 29213, FeCl3 (S. aureus 29213 [1]; 4 μM FeCl3): 8 µM | MIC against S. aureus 29213, NH4Cl (S. aureus 29213 [1]; 6 μM NH4Cl): 8 µM | MIC against S. aureus 29213, ZnCl2 (S. aureus 29213 [1]; 8 μM ZnCl2): 4 µM | MIC against S. aureus 29213, MgCl2 (S. aureus 29213 [1]; 1 mM MgCl2): 8 µM | MIC against S. aureus 29213, CaCl2 (S. aureus 29213 [1]; 2 mM CaCl2): 16 µM | MIC against S. aureus 29213, KCl (S. aureus 29213 [1]; 4.5 mM KCl): 8 µM | MIC against S. aureus 29213, NaCl (S. aureus 29213 [1]; 150 mM NaCl): 8 µM | MIC E. coli 25922 (E. coli 25922): 16 µM | MIC E. coli UB1005 (E. coli UB1005): 16 µM | MIC L. plantarum 8014 (L. plantarum 8014): >64 µM | MIC P. aeruginosa 27853 (P. aeruginosa 27853): >64 µM | MIC E. coli K99 (E. coli K99): 16 µM | MIC E. coli K88 (E. coli K88): 16 µM | MIC S. aureus 29213 (S. aureus 29213 [2]): 8 µM | MIC S. aureus 25923 (S. aureus 25923): 8 µM | hemolytic activity against hRBCs [3]: barely exhibited hemolysis effects | MIC S. typhimurium 14028 (S. typhimurium 14028): 32 µM | MIC S. typhimurium 7731 (S. typhimurium 7731): 16 µM | MIC S. pullorum 7913 (S. pullorum 7913): >64 µM
